Experimental data published in ChEMBL document CHEMBL1201862, “PubChem BioAssay data set” (2004).
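Tested at 5 concentrations; 48 h exposure; 96-well plates; endpoints linearly interpolated, else capped at highest concentration. GI50 = concentration required for 50% inhibition of growth.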 Activity calls are given as the source filed them. Rule as the data show it: active = GI50 up to about 1.1 µM and inactive = higher.

Tests used:
Assay in all cases: NCI-60 cell line screen, 48 h
HCT-15 = test system: HCT-15
Malme-3M = test system: Malme-3M
OVCAR-8 = test system: OVCAR-8
RPMI-8226 = test system: RPMI-8226
NCI-H460 = test system: NCI-H460
HCC 2998 = test system: HCC 2998
SR = test system: SR
SF-539 = test system: SF-539
KM12 = test system: KM12
A498 = test system: A498
SNB-75 = test system: SNB-75
U-251 = test system: U-251
TK-10 = test system: TK-10
HT-29 = test system: HT-29
Hs-578T = test system: Hs-578T
SF-295 = test system: SF-295
MDA-MB-231 = test system: MDA-MB-231
HOP-62 = test system: HOP-62
SW-620 = test system: SW-620
PC-3 = test system: PC-3
UACC-257 = test system: UACC-257
HL-60 = test system: HL-60
SNB-19 = test system: SNB-19
HOP-92 = test system: HOP-92
COLO 205 = test system: COLO 205
A549 = test system: A549
OVCAR-5 = test system: OVCAR-5
UO-31 = test system: UO-31
SK-OV-3 = test system: SK-OV-3
786-0 = test system: 786-0
NCI/ADR-RES = test system: NCI/ADR-RES
MDA-MB-435 = test system: MDA-MB-435
CCRF-CEM = test system: CCRF-CEM
MOLT-4 = test system: MOLT-4
CAKI-1 = test system: CAKI-1
SN12C = test system: SN12C
NCI-H226 = test system: NCI-H226
SK-MEL-5 = test system: SK-MEL-5
OVCAR-4 = test system: OVCAR-4
K562 = test system: K562
LOX IMVI = test system: LOX IMVI
SF-268 = test system: SF-268
MDA-N = test system: MDA-N
T47D = test system: T47D
ACHN = test system: ACHN
IGROV-1 = test system: IGROV-1
NCI-H522 = test system: NCI-H522
HCT-116 = test system: HCT-116
SK-MEL-2 = test system: SK-MEL-2
RXF 393 = test system: RXF 393
NCI-H23 = test system: NCI-H23
SK-MEL-28 = test system: SK-MEL-28
UACC-62 = test system: UACC-62
EKVX = test system: EKVX
DU-145 = test system: DU-145
M14 = test system: M14
OVCAR-3 = test system: OVCAR-3
MCF7 = test system: MCF7

Measured: GI50

COc1ccc(N2C(=O)C(=O)N(c3ccc(/N=N\c4ccccc4)cc3)C2=S)cc1
inactive: Malme-3M 18.5 µM | OVCAR-8 17.9 µM | RPMI-8226 40.7 µM | NCI-H460 18.3 µM | HCC 2998 16.4 µM | SR 38 µM | SF-539 19.2 µM | KM12 17.5 µM | A498 23.8 µM | SNB-75 22.6 µM | U-251 17.1 µM | TK-10 20.7 µM | HT-29 18.6 µM | Hs-578T 27.4 µM | SF-295 18.7 µM | MDA-MB-231 22.8 µM | HOP-62 18.6 µM | SW-620 18.7 µM | PC-3 17.6 µM | UACC-257 18.4 µM | HL-60 47.3 µM | SNB-19 21.9 µM | HOP-92 16.8 µM | COLO 205 17.1 µM | A549 20.2 µM | OVCAR-5 21.1 µM | UO-31 16.3 µM | SK-OV-3 20.2 µM | 786-0 17.5 µM | NCI/ADR-RES 18.9 µM | MDA-MB-435 22.8 µM | CCRF-CEM 35.1 µM | MOLT-4 32.9 µM | CAKI-1 20.2 µM | SN12C 18 µM | NCI-H226 21.7 µM | SK-MEL-5 16.7 µM | OVCAR-4 18.2 µM | K562 37.5 µM | LOX IMVI 18.7 µM | SF-268 22.1 µM | MDA-N 19.3 µM | T47D 18.8 µM | ACHN 19 µM | IGROV-1 16.6 µM | NCI-H522 5.37 µM | HCT-116 19.3 µM | SK-MEL-2 17.9 µM | RXF 393 17.3 µM | NCI-H23 18.5 µM | SK-MEL-28 23.2 µM | UACC-62 16.6 µM | EKVX 17.9 µM | DU-145 16 µM
17.2 µM: HCT-15

CC(C)(C)[Si](C)(C)OCC1OC(n2cnc3c(N)ncnc32)C(O[Si](C)(C)C(C)(C)C)C1O[Si](C)(C)C(C)(C)C (configuration not stated)
inactive: Malme-3M 44.9 µM | OVCAR-8 14.1 µM | NCI-H460 4.11 µM | SR 10.3 µM | SNB-75 13.4 µM | M14 11.1 µM | HT-29 9.75 µM | Hs-578T 15.6 µM | OVCAR-3 2.87 µM | SF-295 10.3 µM | MDA-MB-231 10.9 µM | HOP-62 13.9 µM | SW-620 10.8 µM | PC-3 2.85 µM | UACC-257 6.17 µM | HOP-92 33.7 µM | COLO 205 19.5 µM | A549 9.27 µM | SK-OV-3 > 10 µM | 786-0 3.66 µM | NCI/ADR-RES > 100 µM | MOLT-4 2.04 µM | SN12C 14.9 µM | SK-MEL-5 3.65 µM | LOX IMVI 6.43 µM | SF-268 15.1 µM | MDA-N 7.14 µM | T47D 11.9 µM | ACHN 6.82 µM | IGROV-1 8.39 µM | NCI-H522 7.76 µM | HCT-116 6.11 µM | SK-MEL-2 15.2 µM | UACC-62 7.41 µM | EKVX 24.9 µM | DU-145 7.93 µM
35 µM: HCT-15

CSc1cc(Cl)c(C)cc1S(=O)(=O)NC(=O)NNc1ccc(F)c(Cl)c1
inactive: Malme-3M > 100 µM | OVCAR-8 > 100 µM | NCI-H460 > 100 µM | HCC 2998 > 100 µM | SR 61 µM | SF-539 > 100 µM | KM12 > 100 µM | A498 > 100 µM | SNB-75 > 100 µM | U-251 > 100 µM | M14 > 100 µM | HT-29 > 100 µM | Hs-578T > 100 µM | OVCAR-3 > 100 µM | SF-295 > 100 µM | MDA-MB-231 > 100 µM | HOP-62 > 100 µM | SW-620 > 100 µM | PC-3 > 100 µM | SNB-19 > 100 µM | COLO 205 > 100 µM | A549 > 100 µM | OVCAR-5 > 100 µM | SK-OV-3 > 100 µM | 786-0 > 100 µM | NCI/ADR-RES > 100 µM | MDA-MB-435 > 100 µM | CCRF-CEM 54.3 µM | MOLT-4 45.7 µM | CAKI-1 > 100 µM | SN12C > 100 µM | NCI-H226 > 100 µM | MCF7 > 100 µM | SK-MEL-5 > 100 µM | OVCAR-4 > 100 µM | K562 > 100 µM | LOX IMVI > 100 µM | SF-268 > 100 µM | MDA-N > 100 µM | T47D > 100 µM | ACHN > 100 µM | IGROV-1 > 100 µM | NCI-H522 > 100 µM | HCT-116 > 100 µM | SK-MEL-2 > 100 µM | RXF 393 > 100 µM | SK-MEL-28 > 100 µM | EKVX > 100 µM | DU-145 > 100 µM
> 100 µM: HCT-15

CCOC(=O)CC(=O)CSc1c(-c2ccccc2)c(=O)n(-c2ccccc2)c(=S)n1-c1ccccc1
inactive: Malme-3M > 100 µM | OVCAR-8 > 100 µM | NCI-H460 > 100 µM | HCC 2998 > 100 µM | SR 95.1 µM | SF-539 > 100 µM | KM12 > 100 µM | A498 > 100 µM | SNB-75 > 100 µM | U-251 > 100 µM | M14 > 100 µM | TK-10 > 100 µM | HT-29 > 100 µM | Hs-578T > 100 µM | OVCAR-3 > 100 µM | SF-295 > 100 µM | MDA-MB-231 > 100 µM | HOP-62 > 100 µM | SW-620 > 100 µM | PC-3 > 100 µM | UACC-257 > 100 µM | HL-60 > 100 µM | SNB-19 > 100 µM | HOP-92 > 100 µM | COLO 205 > 100 µM | A549 > 100 µM | OVCAR-5 > 100 µM | UO-31 > 100 µM | SK-OV-3 > 100 µM | 786-0 > 100 µM | NCI/ADR-RES > 100 µM | MDA-MB-435 > 100 µM | CCRF-CEM 51.4 µM | MOLT-4 38.9 µM | CAKI-1 > 100 µM | SN12C > 100 µM | NCI-H226 > 100 µM | MCF7 > 100 µM | OVCAR-4 > 100 µM | K562 > 100 µM | LOX IMVI > 100 µM | SF-268 > 100 µM | MDA-N > 100 µM | T47D > 100 µM | ACHN > 100 µM | IGROV-1 19.8 µM | NCI-H522 69.7 µM | HCT-116 > 100 µM | RXF 393 > 100 µM | NCI-H23 > 100 µM | SK-MEL-28 > 100 µM | UACC-62 > 100 µM | EKVX > 100 µM | DU-145 > 100 µM
> 100 µM: HCT-15
